Reference: patent publication US20090311237A1, “Combination therapy using a soluble hyaluronidase and a bisphosphonate” (priority 2008, published 2009)
Where “and” joins values, the source holds several entries; their conditions need not be identical. Equal entries are not always repeated.

Experiment: Phase 1 Stage 1 clinical pharmacokinetics of SC ZA co-administered with rHuPH20
Format: in vivo, human
Settings: for MAT (mean absorption time = SC MRT − IV MRT) / MAT, Mean for the dose group / MAT, Median for the dose group: 100 mL, 24000 Units rHuPH20
Protocol: A pharmacokinetic study of zoledronic acid (ZA) co-administered with rHuPH20 in human subjects was conducted. The primary objective of the study was to determine the bioavailability of zoledronic acid dosed via subcutaneous (SC) co-administration with human recombinant hyaluronidase PH20 (rHuPH20). […] The patients were administered the prescribed dosage formulations as follows: Cohorts 1-5 were administered a single subcutaneous infusion in a dosage volume of 100 ml at a rate of 3 mL/min. […] The dosing solution is administered via needle or catheter into the SC space of the left anterior thigh (midway between the anterior iliac crest and the cephalad border of the patella). For cohorts 1-5, the dosing solutions were administered by a controlled rate infusion pump at approximately 3 mL/minute. […] The dosing solutions were administered by syringe push bolus injection. […] Serum concentration of ZA was determined using a qualified LC-MS-MS assay after derivatization with diazomethane (Zhu, L S et al. (2006) Rapid Commun. […] The assay range was from 2.0 to 400 ng/mL with a lower limit of quantitation (LLOQ) at 2.0 ng/mL. […] Non-compartmental analysis was used for derivation of primary and secondary pharmacokinetic (PK) parameters. […] Summary statistics (mean, standard deviation, and median) were calculated using JMP or Microsoft Excel.

[1] = Subj 51, ZA […] SC, inf 0.251 hr, PH20 6024 U
[2] = Subj 63, ZA 0.0820 mg/kg SC, inf […], PH20 6000 U
[3] = Subj 67, ZA 0.0717 mg/kg SC, inf […], PH20 2880 U
[4] = Subj 68, ZA 0.0608 mg/kg SC, inf […], PH20 2880 U
[5] = Subj 70, ZA 0.0776 mg/kg SC, inf […], PH20 2928 U
[6] = Subj 71, ZA 0.0781 mg/kg SC, inf […], PH20 6000 U
[7] = Subj 74, ZA 0.0794 mg/kg SC, inf […], PH20 6000 U
[8] = Subj 77, ZA […] SC, inf […], PH20 6000 U
[9] = ZA 0.25 mg SC + 24000 U rHuPH20, individual subjects
[10] = ZA 0.25 mg SC + 24000 U rHuPH20, mean, n=3
[11] = ZA 0.25 mg SC + 24000 U rHuPH20, median, n=3
[12] = ZA 0.5 mg SC + 24000 U rHuPH20, individual subjects
[13] = ZA 0.5 mg SC + 24000 U rHuPH20, mean, n=3
[14] = ZA 0.5 mg SC + 24000 U rHuPH20, median, n=3
[15] = ZA 1 mg SC + 24000 U rHuPH20, individual subjects
[16] = ZA 1 mg SC + 24000 U rHuPH20, mean, n=3
[17] = ZA 1 mg SC + 24000 U rHuPH20, median, n=3
[18] = ZA 2 mg SC + 24000 U rHuPH20, individual subjects

In the case of `O=P(O)(O)C(O)(Cn1ccnc1)P(=O)(O)O` [ZA, 1-hydroxy-2-(1H-imidazol-1-yl)ethylidene-1,1-bisphosphonic acid], the Vss [1] is reported as 1.27627 L/kg, the Vz [1] is reported as 3.04413 L/kg and the “AUC (0-inf)/D” value [2] is reported as 0.008077 kg·h/mL. It also gave a CL [2] of 2.0635 mL/min/kg, a Cmax/D [2] of 0.002037 kg/mL and a Vss [2] of 1.473 L/kg. The Vz [2] was 3.66662 L/kg, the “AUC (0-inf)/D” value [3] was 0.01012 kg·h/mL and the CL [3] was 1.648 mL/min/kg. The Cmax/D [3] was 0.002176 kg/mL, the Vss [3] was 1.03944 L/kg and the Vz [3] was 2.6134 L/kg. The “AUC (0-inf)/D” value [4] was 0.01035 kg·h/mL, the CL [4] was 1.61 mL/min/kg and the Cmax/D [4] was 0.002368 kg/mL. For the same compound, the Vss [4] was 1.59221 L/kg, the Vz [4] was 3.88814 L/kg and the “AUC (0-inf)/D” value [5] was 0.008898 kg·h/mL. For the same compound, the CL [5] was 1.873 mL/min/kg, the Cmax/D [5] was 0.002771 kg/mL and the Vss [5] was 0.98673 L/kg. The Vz [5] was 3.15269 L/kg, the “AUC (0-inf)/D” value [6] was 0.008873 kg·h/mL and the CL [6] was 1.8783 mL/min/kg. For the same compound, the Cmax/D [6] was 0.002535 kg/mL, the Vss [6] was 0.87424 L/kg and the Vz [6] was 3.12259 L/kg. For the same compound, the “AUC (0-inf)/D” value [7] was 0.006994 kg·h/mL, the CL [7] was 2.3828 mL/min/kg and the Cmax/D [7] was 0.001511 kg/mL. For the same compound, the Vss [7] was 1.84253 L/kg, the Vz [7] was 4.88924 L/kg and the “AUC (0-inf)/D” value [8] was 0.008412 kg·h/mL. It also gave a CL [8] of 1.9812 mL/min/kg, a Cmax/D [8] of 0.001824 kg/mL and a Vss [8] of 1.60873 L/kg. The Vz [8] was 4.21769 L/kg, the “AUC (0-12h)” value [9] was 29.30 ng·h/mL and the “AUC (0-∞)” value [9] was 30.00 ng·h/mL and 31.77 ng·h/mL. For the same compound, the “AUC (0-∞)/D” value [9] was 0.00926 kg·h/mL and 0.00674 kg·h/mL and 0.00971 kg·h/mL, the Cmax/D [9] was 0.00205 kg/mL and 0.00174 kg/mL and 0.00173 kg/mL and the MRT [9] was 4.21 h. For the same compound, the T½elim [9] was 1.88 h and 2.44 h and 2.10 h, the “AUC (0-∞)/D” value [10] was 0.00857 kg·h/mL and the Cmax/D [10] was 0.00184 kg/mL. For the same compound, the T½elim [10] was 2.14 h, the “AUC (0-∞)/D” value [11] was 0.00926 kg·h/mL and the Cmax/D [11] was 0.00174 kg/mL. The T½elim [11] was 2.10 h, the “MAT (mean absorption time = SC MRT − IV MRT)” value (ZA 0.25 mg SC, individual subjects) was 1.47 h and 1.03 h and 2.31 h and the “MAT, Mean for the dose group” value (ZA 0.25 mg SC, n=3) was 1.60 h. For the same compound, the “MAT, Median for the dose group” value (ZA 0.25 mg SC, n=3) was 1.47 h, the “AUC (0-12h)” value [12] was 66.33 ng·h/mL and the “AUC (0-∞)” value [12] was 68.26 ng·h/mL. For the same compound, the “AUC (0-∞)/D” value [12] was 0.00709 kg·h/mL and 0.00766 kg·h/mL and 0.00968 kg·h/mL, the Cmax/D [12] was 0.00174 kg/mL and 0.00192 kg/mL and 0.00214 kg/mL and the MRT [12] was 3.35 h. The T½elim [12] was 2.24 h and 2.27 h (2×), the “AUC (0-∞)/D” value [13] was 0.00814 kg·h/mL and the Cmax/D [13] was 0.00193 kg/mL. The T½elim [13] was 2.26 h, the “AUC (0-∞)/D” value [14] was 0.00766 kg·h/mL and the Cmax/D [14] was 0.00192 kg/mL. For the same compound, the T½elim [14] was 2.27 h, the “MAT (mean absorption time = SC MRT − IV MRT)” value (ZA 0.5 mg SC, individual subjects) was 1.00 h and 1.11 h and the “MAT, Mean for the dose group” value (ZA 0.5 mg SC, n=3) was 1.03 h. For the same compound, the “MAT, Median for the dose group” value (ZA 0.5 mg SC, n=3) was 1.00 h, the “AUC (0-12h)” value [15] was 137.25 ng·h/mL and the “AUC (0-∞)” value [15] was 158.68 ng·h/mL. For the same compound, the “AUC (0-∞)/D” value [15] was 0.00701 kg·h/mL and 0.01176 kg·h/mL and 0.00624 kg·h/mL, the Cmax/D [15] was 0.00174 kg/mL and 0.00247 kg/mL and 0.00128 kg/mL and the MRT [15] was 6.25 h. For the same compound, the Tmax [15] was 0.73 h, the T½elim [15] was 12.87 h and 13.95 h and 8.85 h and the “AUC (0-∞)/D” value [16] was 0.00834 kg·h/mL. The Cmax/D [16] was 0.00183 kg/mL, the T½elim [16] was 11.89 h and the “AUC (0-∞)/D” value [17] was 0.00701 kg·h/mL. For the same compound, the Cmax/D [17] was 0.00174 kg/mL, the T½elim [17] was 12.87 h and the “MAT (mean absorption time = SC MRT − IV MRT)” value (ZA 1 mg SC, individual subjects) was 1.41 h and 1.00 h. The “MAT, Mean for the dose group” value (ZA 1 mg SC, n=3) was 1.36 h, the “MAT, Median for the dose group” value (ZA 1 mg SC, n=3) was 1.41 h and the “AUC (0-12h)” value [18] was 213.87 ng·h/mL and 236.51 ng·h/mL. The “AUC (0-∞)” value [18] was 245.47 ng·h/mL and 293.51 ng·h/mL, the “AUC (0-∞)/D” value [18] was 0.00739 kg·h/mL and 0.00809 kg·h/mL and 0.00825 kg·h/mL and the Cmax/D [18] was 0.00188 kg/mL and 0.00175 kg/mL and 0.00165 kg/mL. The MRT [18] was 10.59 h.
